Results on eleven molecules are retold here after US10077237B2 (Sanofi, priority 2013, dated 2018).

The target in the assay is T1, recombinant human AMPK complex, containing α2β1γ2 (Homo sapiens, UniProt P54646+Q9Y478).
T1 construct: hsAMPKα2-552-His, hsAMPKβ1-2-270 and hsAMPKγ-2-569 respectively; hsAMPKβ1-2-270; hsAMPKγ-2-569; His (C); made in house; host or cells: Spodoptera frugiperda Sf21 (baculovirus)
The assay is described as follows: AMPK in vitro activation assay (HTRF). It counts as biochemical. As to conditions: for EC50: HTRF, recombinant human α2β1γ2 AMPK, 200 μM ATP, biotinylated ACC-CREBp peptide, repeat determinations on separate lines; for Emax: potentiation of AMPK activity as percent over the basal signal (without compound). As for the experimental part:
The recombinant human AMPK complex, containing α2β1γ2 was obtained from baculovirus expression system and generated by cotransfection in Spodoptera frugiperda 21 (Sf21). […] were produced in serum free medium (SF900 II, Invitrogen) for 82 hours after a triple infection at a multiplicity of infection (M.O.I.) of 0.05, 0.06 and 0.045 for hsAMPKα2-552-His, hsAMPKβ1-2-270 and hsAMPKγ-2-569 respectively. Cells were harvested by centrifugation at 1,000×g for 10 minutes at 4° C. and stored at −80° C. The insect cell pellet from 8 liters of culture was resuspended and homogenized in 580 ml of lysis buffer (20 mM Hepes pH 7.5, 150 mM NaCl, 10 mM imidazole, 50 mM NaF, 10% Glycerol and supplemented with EDTA free proteases inhibitor cocktail Roche). The AMPK complex was partially purified using an affinity chromatography under a Ni-NTA Agarose column equilibrated in the lysis buffer and eluted with a gradient (0 to 400 mM) of Imidazol.
A homogeneous time-resolved fluorescence (HTRF) assay was used (Li et al, Anal. Biochem. (2003) 321, 151-156) to identify compounds with stimulating activity for the recombinant human AMPK. Enzyme reaction was performed into a 96-well microtiter plate. First, 20 μL of test compounds in 0.5% DMSO were dispensed followed by 10 μL of protein in 50 mM HEPES buffer at pH 7.0, 100 mM NaCl, 5 mM MgCl2, 0.01% BSA, 0.8 mM DTT. After, 30 min incubation at room temperature, the reaction was initiated by the addition of 10 μL of a solution containing 200 μM of ATP as donor substrate, 2 μM or 0.08 μM of biotinylated ACC-CREBp peptide (PolyPeptide) as acceptor. Plates were then incubated 45 min at 37° C. The reaction was terminated by the addition of 40 μl detection mixture containing Eu^3+ cryptate-conjugated anti-pS^133-CREB antibody and streptavidine-XL665 (CisBio). Plates were further incubated for 2 h30 at room temperature. The fluorescence signal was measured using an Envision multireader (Perkin Elmer). The non-specific signal was obtained without substrates. Potentiation of AMPK activity was expressed as a percent over the basal signal (without compound) from which an EC50 value was determined.
The EC50 of a graded dose response curve represents the concentration of a compound where 50% of its maximal effect is observed.
On the technique in general: TR-FRET usually uses a lanthanide donor and a delayed reading to cut background.

Each structure is given as a SMILES string. Structures can show the parent of a compound that is named as a salt.

T1 sequence (P54646 2-552): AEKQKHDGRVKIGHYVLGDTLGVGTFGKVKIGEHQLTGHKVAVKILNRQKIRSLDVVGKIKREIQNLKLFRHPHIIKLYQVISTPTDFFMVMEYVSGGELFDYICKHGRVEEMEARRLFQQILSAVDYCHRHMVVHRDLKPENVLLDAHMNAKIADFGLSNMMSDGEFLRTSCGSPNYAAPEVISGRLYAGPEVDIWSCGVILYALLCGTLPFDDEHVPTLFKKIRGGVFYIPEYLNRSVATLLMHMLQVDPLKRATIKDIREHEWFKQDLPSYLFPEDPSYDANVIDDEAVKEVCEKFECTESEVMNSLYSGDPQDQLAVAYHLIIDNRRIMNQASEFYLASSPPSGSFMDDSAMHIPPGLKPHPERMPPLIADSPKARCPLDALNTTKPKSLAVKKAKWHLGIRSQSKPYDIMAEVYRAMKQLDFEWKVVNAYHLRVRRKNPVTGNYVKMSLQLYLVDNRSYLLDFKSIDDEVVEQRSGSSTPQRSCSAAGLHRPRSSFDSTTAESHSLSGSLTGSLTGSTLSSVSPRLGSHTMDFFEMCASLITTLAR
T1 sequence (Q9Y478 2-270): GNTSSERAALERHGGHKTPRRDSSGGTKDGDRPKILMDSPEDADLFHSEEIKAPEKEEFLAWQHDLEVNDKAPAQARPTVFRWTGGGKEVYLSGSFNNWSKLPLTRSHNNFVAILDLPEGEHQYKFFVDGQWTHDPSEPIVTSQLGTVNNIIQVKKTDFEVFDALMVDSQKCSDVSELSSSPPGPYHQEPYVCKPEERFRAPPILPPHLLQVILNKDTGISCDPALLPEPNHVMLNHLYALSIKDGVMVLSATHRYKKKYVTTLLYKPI
T1 sequence (Q9UGJ0 2-569 partner limits assumed): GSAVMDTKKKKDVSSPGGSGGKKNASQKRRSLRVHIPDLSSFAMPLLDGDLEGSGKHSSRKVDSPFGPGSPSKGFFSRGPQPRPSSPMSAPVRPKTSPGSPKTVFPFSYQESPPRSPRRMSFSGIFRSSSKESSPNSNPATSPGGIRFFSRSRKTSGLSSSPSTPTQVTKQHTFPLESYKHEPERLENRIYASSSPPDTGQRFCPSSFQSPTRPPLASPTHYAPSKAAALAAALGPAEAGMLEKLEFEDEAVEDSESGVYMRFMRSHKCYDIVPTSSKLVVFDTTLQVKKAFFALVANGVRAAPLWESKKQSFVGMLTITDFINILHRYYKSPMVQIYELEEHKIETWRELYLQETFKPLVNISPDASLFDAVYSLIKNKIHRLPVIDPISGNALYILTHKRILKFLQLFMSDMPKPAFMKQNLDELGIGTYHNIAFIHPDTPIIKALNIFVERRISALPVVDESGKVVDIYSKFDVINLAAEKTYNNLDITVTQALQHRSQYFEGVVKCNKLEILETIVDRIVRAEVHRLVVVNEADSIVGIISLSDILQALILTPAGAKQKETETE

With `O=C1Nc2cc(Cl)c(-c3ccc(C4(CO)CC4)cc3)cc2C1=C(O)c1cccc(F)c1` [Compound 27, 6-Chloro-3-[1-(3-fluoro-phenyl)-1-hydroxy-methylidene]-5-[4-(1-hydroxymethyl-cyclopropyl)-phenyl]-1,3-dihydro-indol-2-one], the EC50 – broadly, the concentration needed to bring the measured effect to its halfway point – stood at 2 nM and the Emax (in general, the greatest response seen or fitted, relative to the assay's reference) is 129%.
For `Cc1cc(C(O)=C2C(=O)Nc3cc(Cl)c(-c4ccc(N5CCOCC5)cc4)cc32)no1` [Compound 28, 6-Chloro-3-[1-hydroxy-1-(5-methyl-isoxazol-3-yl)-methylidene]-5-(4-morpholin-4-yl-phenyl)-1,3-dihydro-indol-2-one] the same measures were 130 nM and 150%.
For the molecule `Cc1cc(C(O)=C2C(=O)Nc3cc(F)c(-c4ccc(N5CCOCC5)cc4)cc32)on1` [Compound 29, 6-Fluoro-3-[1-hydroxy-1-(3-methyl-isoxazol-5-yl)-methylidene]-5-(4-morpholin-4-yl-phenyl)-1,3-dihydro-indol-2-one], the half-maximal effective concentration (EC50) amounted to 58 nM and the Emax is 157%.
For `Cc1cc(C(O)=C2C(=O)Nc3cc(Cl)c(-c4ccc(F)cc4)cc32)on1` [Compound 30, 6-Chloro-5-(4-fluoro-phenyl)-3-[1-hydroxy-1-(3-methyl-isoxazol-5-yl)-methylidene]-1,3-dihydro-indol-2-one], in that order: 240 nM and 108%.
For `Cc1cc(C(O)=C2C(=O)Nc3cc(C)c(-c4ccc(N5CCOCC5)cc4)cc32)on1` [Compound 31, 3-[1-Hydroxy-1-(3-methyl-isoxazol-5-yl)-methylidene]-6-methyl-5-(4-morpholin-4-yl-phenyl)-1,3-dihydro-indol-2-one] the same measures were 540 nM and 147%.
Turning to `O=C1Nc2cc(Cl)c(-c3ccc(N4CCOCC4)cc3)cc2C1=C(O)c1ccccc1F` [Compound 32, 6-Chloro-3-[1-(2-fluoro-phenyl)-1-hydroxy-methylidene]-5-(4-morpholin-4-yl-phenyl)-1,3-dihydro-indol-2-one], the concentration giving a half-maximal response (EC50) was determined as 140 nM and the Emax came to 112%.
For `Cc1cc(C(O)=C2C(=O)Nc3cc(Cl)c(-c4ccc(O)cc4)cc32)on1` [Compound 33, 6-Chloro-3-[1-hydroxy-1-(3-methyl-isoxazol-5-yl)-methylidene]-5-(4-hydroxy-phenyl)-1,3-dihydro-indol-2-one], in that order: 390 nM and 120%.
On to `O=C1Nc2cc(Cl)c(-c3ccc(N4CCOCC4)cc3)cc2C1=C(O)c1cccc(Cl)c1` [Compound 34, 6-Chloro-3-[1-(3-chloro-phenyl)-1-hydroxy-methylidene]-5-(4-morpholin-4-yl-phenyl)-1,3-dihydro-indol-2-one], for which the EC50 was 630 nM and the maximal effect (Emax) came to 156%.
For `Cc1cc(C(O)=C2C(=O)Nc3cc(Cl)c(-c4ccc(-c5ccncc5)cc4)cc32)on1` [Compound 35, 6-Chloro-3-[1-hydroxy-1-(3-methyl-isoxazol-5-yl)-methylidene]-5-(4-pyridin-4-yl-phenyl)-1,3-dihydro-indol-2-one, hydrochloride], in that order: 23 nM and 151%.
For `O=C1Nc2cc(Cl)c(-c3ccc(N4CCOCC4)cc3)cc2C1=C(O)c1ccc(F)cc1` [Compound 36, 6-Chloro-3-[1-(4-fluoro-phenyl)-1-hydroxy-methylidene]-5-(4-morpholin-4-yl-phenyl)-1,3-dihydro-indol-2-one], the EC50 was determined as 380 nM and the maximal response (Emax) stood at 153%.
In the case of `Cc1cc(C(O)=C2C(=O)Nc3cc(Cl)c(-c4ccc(-c5csc(N)n5)cc4)cc32)on1` [Compound 37, 5-[4-(2-Amino-thiazol-4-yl)-phenyl]-6-chloro-3-[1-hydroxy-1-(3-methyl-isoxazol-5-yl)-methylidene]-1,3-dihydro-indol-2-one], the EC50 turned out to be 37 nM and the maximum response (Emax) is 192%.
